Reference: PubChem BioAssay (NCI)
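96-well plates; 48 h exposure; 5 concentrations. Endpoints by linear interpolation between flanking doses. Not reached: highest tested concentration assigned. Abbreviation: GI50, concentration required for 50% inhibition of growth. TGI: total growth inhibition.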

How the values were obtained:
Test in all cases: NCI tumour cell line growth inhibition, 48 h
[1] = system: HT29 colon
[2] = system: MOLT-4 leukemia
[3] = system: IGROV1 ovarian
[4] = system: HOP-62 NSCLC
[5] = system: BT-549 breast
[6] = system: NCI-H226 lung
[7] = system: KM12 colon
[8] = system: TK-10 renal
[9] = system: NCI-H460 lung
[10] = system: OVCAR-4 ovarian
[11] = system: SK-MEL-2 melanoma
[12] = system: UO-31 renal
[13] = system: RXF 393 renal
[14] = system: CAKI-1 renal
[15] = system: OVCAR-5 ovarian
[16] = system: SK-MEL-5 melanoma
[17] = system: UACC-62 melanoma
[18] = system: OVCAR-8 ovarian
[19] = system: SK-OV-3 ovarian
[20] = system: LOX IMVI melanoma
[21] = system: HCT-15 colon
[22] = system: MDA-MB-231 breast
[23] = system: U251 CNS
[24] = system: EKVX NSCLC
[25] = system: SF-268 CNS
[26] = system: PC-3 prostate
[27] = system: HCC-2998 colon
[28] = system: SF-539 CNS
[29] = system: SN12C renal
[30] = system: HCT-116 colon
[31] = system: NCI-H522 lung
[32] = system: HL-60(TB) leukemia
[33] = system: SK-MEL-28 melanoma
[34] = system: SNB-75 CNS
[35] = system: 786-0 renal
[36] = system: K-562 leukemia
[37] = system: SR leukemia
[38] = system: COLO 205 colon
[39] = system: A549 NSCLC
[40] = system: SW-620 colon
[41] = system: HOP-92 NSCLC
[42] = system: SF-295 CNS
[43] = system: MDA-MB-435
[44] = system: M14 melanoma
[45] = system: NCI/ADR-RES ovarian
[46] = system: T-47D breast
[47] = system: A498 renal
[48] = system: HS 578T breast
[49] = system: SNB-19 CNS
[50] = system: OVCAR-3 ovarian
[51] = system: UACC-257 melanoma
[52] = system: ACHN renal
[53] = system: MALME-3M melanoma

## OC1CCN(CCCOc2c3ccc(Cl)cc3nc3c2oc2ccc(Cl)cc23)CC1
[1]
  GI50: 0.505 µM
  TGI: 1.77 µM
[2]
  GI50: 0.443 µM
  TGI: 1.96 µM
[3]
  GI50: 1.71 µM
  TGI: 15 µM
[4]
  GI50: 1.85 µM
  TGI: 12.5 µM
[5]
  GI50: 4.51 µM
  TGI: 18.9 µM
[6]
  GI50: 1.67 µM
  TGI: 4.13 µM
[7]
  GI50: 1.06 µM
  TGI: 3.61 µM
[8]
  GI50: 3.05 µM
  TGI: 8.4 µM
[9]
  GI50: 0.465 µM
  TGI: 1.99 µM
[10]
  GI50: 1.24 µM
  TGI: 2.79 µM
[11]
  GI50: 5.32 µM
  TGI: 17.7 µM
[12]
  GI50: 0.768 µM
  TGI: 2.17 µM
[13]
  GI50: 1.24 µM
  TGI: 2.52 µM
[14]
  GI50: 0.877 µM
  TGI: 2.12 µM
[15]
  GI50: 1.38 µM
  TGI: 2.85 µM
[16]
  GI50: 2.23 µM
  TGI: 5.03 µM
[17]
  GI50: 1.83 µM
  TGI: 3.78 µM
[18]
  GI50: 1.54 µM
  TGI: 18.9 µM
[19]
  GI50: 3.37 µM
  TGI: 15.5 µM
[20]
  GI50: 0.298 µM
  TGI: 1.42 µM
[21]
  GI50: 0.518 µM
  TGI: 2.07 µM
[22]
  GI50: 1.26 µM
  TGI: 2.87 µM
[23]
  GI50: 0.876 µM
  TGI: 2.27 µM
[24]
  GI50: 2.84 µM
  TGI: 13.2 µM
[25]
  GI50: 1.15 µM
  TGI: 4.5 µM
[26]
  GI50: 1.23 µM
  TGI: 2.55 µM
[27]
  GI50: 0.868 µM
  TGI: 15.8 µM
[28]
  GI50: 1.36 µM
  TGI: 2.67 µM
[29]
  GI50: 0.864 µM
  TGI: 2.38 µM
[30]
  GI50: 0.417 µM
  TGI: 1.59 µM
[31]
  GI50: 1.8 µM
  TGI: 11.1 µM
[32]
  GI50: 1.48 µM
  TGI: 3.23 µM
[33]
  GI50: 1.77 µM
  TGI: 3.18 µM
[34]
  GI50: 2.85 µM
  TGI: 16.3 µM
[35]
  GI50: 1.13 µM
  TGI: 2.49 µM
[36]
  GI50: 0.417 µM
  TGI: 1.93 µM
[37]
  GI50: 0.595 µM
  TGI: 2.62 µM
[38]
  GI50: 1.16 µM
  TGI: 3.18 µM
[39]
  GI50: 1.05 µM
  TGI: 2.5 µM
[40]
  GI50: 0.455 µM
  TGI: 1.79 µM
[41]
  GI50: 0.588 µM
  TGI: 6.77 µM
[42]
  GI50: 3.02 µM
  TGI: 15.8 µM
[43]
  GI50: 1.34 µM
  TGI: 2.7 µM
[44]
  GI50: 1.43 µM
  TGI: 2.84 µM
[45]
  GI50: 0.718 µM
  TGI: 2.77 µM
[46]
  GI50: 5.77 µM
  TGI: 36.5 µM
[47]
  GI50: 6.74 µM
  TGI: 21.1 µM
[48]
  GI50: 2.75 µM
  TGI: 17.2 µM
[49]
  GI50: 1.45 µM
  TGI: 3.22 µM
[50]
  GI50: 1.56 µM
  TGI: 4.12 µM
[51]
  GI50: 1.79 µM
  TGI: 3.68 µM
[52]
  GI50: 0.504 µM
  TGI: 1.69 µM
[53]
  GI50: 1.73 µM
  TGI: 3.48 µM
